The source of these data is PubChem BioAssay (NCI).

Test systems include ACHN renal; UACC-257 melanoma; NCI-H460 lung; M14 melanoma; NCI-H226 lung; HOP-62 NSCLC; OVCAR-8 ovarian; UACC-62 melanoma; DLD-1 colon; LXFL 529 NSCLC; XF 498 CNS; M19-MEL melanoma.
Holding throughout (test): NCI tumour cell line growth inhibition, 48 h

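Growth conditions: 96-well plates. Treatment: test compound, 48 hours, 5 concentrations. Analysis: linear interpolation between bracketing concentrations; unreached endpoints set to highest concentration. At the GI50, growth is halved. TGI: concentration producing complete growth inhibition.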

Consider `Cn1c(=S)c2[nH]c(SCCN3C(=O)c4ccccc4C3=O)nc2n(C)c1=O`, for which the TGI in the assay on ACHN renal, in the assay on UACC-257 melanoma, with NCI-H460 lung, in the assay with M14 melanoma, in the assay with NCI-H226 lung and in the assay on HOP-62 NSCLC was over 100 µM throughout. The TGI in the assay with OVCAR-8 ovarian and in the assay on UACC-62 melanoma was over 100 µM throughout.
`COC1C2c3cc4c(cc3CC(C#N)(c3ccccc32)N1C(=O)c1ccccc1)OCO4` (stereo unspecified): the TGI in the assay with ACHN renal, in the assay with UACC-257 melanoma, with NCI-H460 lung, with M14 melanoma, in the assay on DLD-1 colon and in the assay on LXFL 529 NSCLC was over 100 µM throughout. Besides, the TGI in the assay on XF 498 CNS, in the assay with NCI-H226 lung, in the assay on HOP-62 NSCLC, with OVCAR-8 ovarian and with UACC-62 melanoma was over 100 µM each time.
For the molecule `O=S(=O)(Nc1ccc(F)c(Cl)c1)c1ccc(-c2cnc(C3CC3)o2)cc1`, the GI50 in the assay on ACHN renal is 0.533 µM; in the assay on UACC-257 melanoma, 1.12 µM; in the assay on NCI-H460 lung, 0.377 µM; with M14 melanoma it was 0.264 µM; with NCI-H226 lung, 0.822 µM; in the assay with HOP-62 NSCLC it was 0.453 µM. Moreover, the GI50 is 0.588 µM in the assay with OVCAR-8 ovarian and 0.183 µM in the assay with UACC-62 melanoma. For the same molecule, the TGI in the assay on ACHN renal stood at 12 µM; in the assay on UACC-257 melanoma it was 10.1 µM; with NCI-H460 lung it was 4.29 µM; with M14 melanoma it was 7.13 µM; with NCI-H226 lung, 10.1 µM; in the assay on HOP-62 NSCLC, 14.4 µM. For the same molecule, the TGI with OVCAR-8 ovarian came out at 14.6 µM; in the assay with UACC-62 melanoma, 5.51 µM.
On to `C/C=C/COC(=O)CO[N+](=O)[O-]`, for which the TGI in the assay with ACHN renal, in the assay on UACC-257 melanoma, in the assay on NCI-H460 lung, in the assay with M14 melanoma, with DLD-1 colon and in the assay with LXFL 529 NSCLC was over 100 µM in each case. In addition, the TGI with M19-MEL melanoma, with XF 498 CNS, in the assay on NCI-H226 lung, in the assay on HOP-62 NSCLC and in the assay with OVCAR-8 ovarian was over 100 µM throughout.
For `Cc1c(C(N)=O)sc2c1c(=O)n(Cc1ccccc1)c1nnc(-c3ccc(Br)cc3)n21`, the GI50 in the assay on ACHN renal is 1.46 µM; with UACC-257 melanoma, 3.14 µM; in the assay with NCI-H460 lung it was 0.813 µM; in the assay with M14 melanoma it was 1.51 µM; in the assay with NCI-H226 lung, 2.46 µM; in the assay on HOP-62 NSCLC it was 1.38 µM. For the same molecule, the GI50 in the assay with OVCAR-8 ovarian was 2.21 µM; in the assay on UACC-62 melanoma it was 1.78 µM. Besides, the TGI with ACHN renal was found to be 12.3 µM; in the assay with UACC-257 melanoma it was 11.8 µM; in the assay on NCI-H460 lung, 6.55 µM; with M14 melanoma it was 3.67 µM; in the assay on NCI-H226 lung it was 9.82 µM; in the assay with HOP-62 NSCLC, 14.4 µM. Further, the values for the TGI with OVCAR-8 ovarian and with UACC-62 melanoma were 15 µM and 8.46 µM, respectively.
For the molecule `O=C(C[P+](c1ccccc1)(c1ccccc1)c1ccccc1)C[P+](c1ccccc1)(c1ccccc1)c1ccccc1`, the GI50 in the assay with ACHN renal is 0.144 µM; in the assay on UACC-257 melanoma, 0.416 µM; in the assay on NCI-H460 lung it was 0.546 µM; in the assay on M14 melanoma it was 0.387 µM; with NCI-H226 lung, 0.197 µM; with HOP-62 NSCLC it was 1.46 µM. In addition, the GI50 was 0.318 µM in the assay on OVCAR-8 ovarian and 0.256 µM in the assay on UACC-62 melanoma. Moreover, the TGI came to 0.393 µM with ACHN renal; 1.28 µM in the assay on UACC-257 melanoma; 2.3 µM in the assay with NCI-H460 lung; 1.46 µM with M14 melanoma; 0.612 µM in the assay with NCI-H226 lung; 2.84 µM in the assay on HOP-62 NSCLC. In addition, the TGI with OVCAR-8 ovarian stood at 2.31 µM; with UACC-62 melanoma, 0.865 µM.
In the case of `CCOC(=O)c1cnn2c3ccccc3n(S(=O)(=O)c3ccc(OC)cc3)c12`, the GI50 in the assay on ACHN renal was 0.811 µM; with UACC-257 melanoma it was 17.1 µM; in the assay on NCI-H460 lung, 0.753 µM; in the assay with M14 melanoma, 0.211 µM; with NCI-H226 lung, 2.6 µM; with HOP-62 NSCLC, 0.523 µM. The GI50 in the assay on OVCAR-8 ovarian is 0.551 µM; with UACC-62 melanoma it was 0.574 µM. Moreover, the TGI in the assay with ACHN renal, with UACC-257 melanoma, in the assay with NCI-H460 lung, with M14 melanoma, with NCI-H226 lung and in the assay on HOP-62 NSCLC was over 100 µM each time. Also, the TGI in the assay on OVCAR-8 ovarian and with UACC-62 melanoma was over 100 µM each time.
As to `O=C(/C=C/C12c3ccccc3C(c3ccccc31)C1C(=O)NC(=O)C12)c1ccc(Cl)cc1` (stereo unspecified), the GI50 is 1.65 µM with ACHN renal; 1.56 µM in the assay with UACC-257 melanoma; 1.8 µM in the assay on NCI-H460 lung; 1.65 µM in the assay on M14 melanoma; 1.92 µM with NCI-H226 lung; 1.69 µM in the assay with HOP-62 NSCLC. Moreover, the GI50 with OVCAR-8 ovarian was 1.13 µM; in the assay on UACC-62 melanoma it was 1.4 µM. Further, the TGI with ACHN renal came out at 3.02 µM; in the assay with UACC-257 melanoma it was 3.45 µM; with NCI-H460 lung, 4.31 µM; in the assay with M14 melanoma it was 3.29 µM; in the assay on NCI-H226 lung, 5 µM; in the assay on HOP-62 NSCLC, 3.39 µM. For the same molecule, the TGI in the assay on OVCAR-8 ovarian amounted to 2.66 µM; with UACC-62 melanoma, 2.77 µM.
Turning to `O=C(NCc1ccco1)c1cccc(NC2=C(Cl)C(=O)N(Cc3ccccc3)C2=O)c1`, the GI50 was 9.18 µM in the assay on ACHN renal; 3.86 µM in the assay on UACC-257 melanoma; 92.3 µM in the assay with NCI-H460 lung; 11.7 µM in the assay with M14 melanoma; 12.7 µM in the assay with NCI-H226 lung; 13.1 µM in the assay with HOP-62 NSCLC. For the same molecule, the figures for the GI50 with OVCAR-8 ovarian and in the assay on UACC-62 melanoma were 8.57 µM and 12.6 µM, respectively. Besides, the TGI with ACHN renal is 42.3 µM; with UACC-257 melanoma, 26.5 µM; in the assay on NCI-H460 lung, over 100 µM; in the assay on M14 melanoma, 24.6 µM; with NCI-H226 lung, 62.7 µM; in the assay on HOP-62 NSCLC, 28.5 µM. In addition, the values for the TGI in the assay with OVCAR-8 ovarian and in the assay on UACC-62 melanoma were over 100 µM and 33.3 µM, respectively.
